Data taken from patent US20230277669A1, “USES OF UROLITHINS” (Amazentis SA, priority 2022, published 2023).

Key:
CD19-CAR T cells = test: CD19-CAR T cell generation in presence of UA; format: cell-based, human
NALM-6 leukemia cells = test: Killing of NALM-6 cells by CD19-CAR T cells; format: cell-based, human; conditions: 24 h co-culture
CD8+ T cells = test: In vitro stimulation of CD3+ T cells with aCD3/aCD28 beads in presence of UA; format: cell-based, FVB mice
Method: (FIG. 2A) Scheme of CD3+ T-cell activation and analysis for various timepoints. (FIG. 2B) Reduced effector molecule expression on in vitro treated cells (n=3 pooled from three independent experiments). Isolated T-cells were stimulated for 48 h at the presence of UA or DMSO in the indicated doses. Data are mean ± SD, *p < 0.05 by two-sided t-test. (FIG. 2C) Reduced effector molecule expression on in vitro treated cells (n=3 pooled from three independent experiments). Isolated T-cells were stimulated for 48 h at the presence of UA or DMSO in the indicated doses. Data are mean ± SD, *p < 0.05 by two-sided t-test. (FIG. 2D) Quantification of T memory stem cells (TSCM: CD44^-CD62L^+Sca1^hi) after 24 h, 48 h and 96 h post stimulation with aCD3/aCD28 stimulation beads as indicated in (A) (n=4 pooled from four independent experiments). Data are mean ± SD, statistical analysis was performed via two-sided t-test (*p < 0.05; **p < 0.01; n.s. not significant). (FIG. 2E) Mitochondrial membrane potential within naïve CD62L^+CD44^-CD8^+ T cells, with TMRM^lo representing cells with low mitochondrial membrane potential. Cells were stimulated for 48 h as depicted in (A). Data are mean ± SD, n=4; ***p <0.001 by two-sided t-test. Experiment was repeated twice in independent experiments. (FIG. 2F) Representative histogram and quantification of memory marker CD95 expression in CD62L^+CD44^-CD8^+ cells, 48 hours after in vitro stimulation. Data are mean ± SD; n=5; ****p < 0.0001 by two-sided t-test. Data depicts one of two independent experiments. (FIG. 2G) Analysis of TIL of UA-fed mice, treated as depicted in FIG. 1J. Percentage of TSCM within CD8+ (G; n=7), as well as TCF1 (H; n=7) PD1^hi,Tim3^hi and CTLA4hi (I-K, all n=6) in the TIL CD8+ population are shown. Data are mean ± SD, statistical analysis was performed via two-sided t-test (*p < 0.05; **p < 0.01;, ***p <0.001.). Data depicts one of two independent experiments. (FIG. 2H) The same experiment as FIG. 2G with TCF1 (n=7) in the TIL CD8+ population. (FIG. 2I) The same experiment as FIG. 2G with PD1^hi (n=6) in the TIL CD8+ population. (FIG. 2J) The same experiment as FIG. 2G with Tim3^hi (n=6) in the TIL CD8+ population. (FIG. 2K) The same experiment as FIG. 2G with CTLA4hi (n=6) in the TIL CD8+ population. (FIG. 2L) Flow cytometry readout of ex vivo cytokine release of previously isolated TIL upon re-stimulation with PMA/ionomycin. Data are mean ± SD with n=7 per group. Statistical analysis was performed by two-sided t-test (**p < 0.01). One out of two independent experiments are shown. (FIG. 2M) Flow cytometry readout of ex vivo cytokine release of previously isolated TIL upon re-stimulation with PMA/ionomycin. Data are mean ± SD with n=7 per group. Statistical analysis was performed by two-sided t-test (**p < 0.01). One out of two independent experiments are shown.
(FIG. 4A) Scheme of CD3+ T-cell activation and analysis for various timepoints in order to investigate mitophagy induction in vitro. (FIG. 4B) Analysis of mitochondrial membrane potential within CD8+ T cells, with TMRM^lo representing cells with low mitochondrial membrane potential. Analysis was performed six hours after stimulation with aCD/aCD28 stimulation beads at the presence of the indicated treatments. N=4 per group, *p < 0.05 by Mann Whitney U test. One of two independent experiments are shown. (FIG. 4C) Representative flow histogram and quantification of lysosome formation in CD8+ cells six hours after in vitro stimulation. MFI shown relative to DMSO controls, n=4. Data are normalised mean ± SD, statistical analysis by two-sided t-test. One out of two independent experiments are shown. (FIG. 4D) Mitotracker Red staining of in vitro stimulated CD8+ cells after 24 hours of Urolithin A (UA25 n=6; UA50 n=6) or vehicle control treatment (DMSO: n=4). A representative flow histogram depicting identification of Mitotracker^hi cells is shown. […]

O=c1oc2cc(O)ccc2c2ccc(O)cc12 [Urolithin A]
gene delivery into CD8+ cells (CD19-CAR T cells): did not impair gene delivery | markers of exhaustion (CD19-CAR T cells; UA supplementation): not affected | CAR expressing TSCM cells among CD8+ cells (CD19-CAR T cells; three days post transduction, upon UA exposure): about 60% | CD19 CAR-T cell mediated killing of NALM-6 leukemia cells (NALM-6 leukemia cells): did not have a negative impact | number of CD44-CD62L+Sca1hi TSCM (CD8+ T cells; 24 h, 48 h and 96 h post stimulation): in a dose dependent manner to a significantly increased number | loss of mitochondrial content per T cell subset (TSCM, TCM, TEFF) (CD8+ T cells; 24 hours, 50 µM Urolithin A): deteted in all T cell subsets analyzed | mitochondrial content (Mitotracker Red) in CD8+ cells (CD8+ T cells; 24 hours, UA25, UA50): loss of mitochondrial content in a dose-dependent manner | TSCM formation, stimulated vs unstimulated CD8+ cells (CD8+ T cells; 48 h, aCD3/CD28 beads +-UA or unstimulated): only formed in activated T cells | PGC-1 expression in CD8+ cells (CD8+ T cells; 48 h, prolonged UA administration in vitro): marked upregulation of PGC-1 | CD95 expression in CD62L+CD44-CD8+ cells (CD8+ T cells; 48 hours after stimulation): increased CD95 expression | TCF1 expression (CD8+ T cells; 48 h stimulation): high expression of TCF1 | cyclin D1 expression (CD8+ T cells; 48 h stimulation): reduced cyclin D1 expression | differentiation into effector T cells (effector molecule expression) (CD8+ T cells; 48 h stimulation): blocked differentiation into effector T cells | mitochondrial membrane potential (TMRM) in naive CD62L+CD44-CD8+ T cells (CD8+ T cells; 48 h stimulation): reduced mitochondrial membrane potential | naive CD44loCD62Lhi T cells (CD8+ T cells; 48 h stimulation, different doses of UA): significant increase | CD8+ T cell division (CTV staining) (CD8+ T cells; 72 h stimulation): restricted CD8+T cell division in a dose-dependent manner | mitochondrial membrane potential in CD8+ T cells (CD8+ T cells; six hours after UA administration): reduction of mitochondrial membrane potential | lysosome formation in CD8+ cells (CD8+ T cells; six hours after stimulation): enhanced lysosome formation
